Each structure is given as a SMILES string. Active and inactive are the calls of the source.

In assay [1] the target is DNA dC->dU-editing enzyme APOBEC-3G (Homo sapiens, UniProt Q9HC16). The assay is classed as functional.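 Also: Dose-response counterscreen measuring inhibition of APOBEC3G DNA deaminase activity, run while confirming APOBEC3A inhibitors.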
The target of assay [2] is DNA dC->dU-editing enzyme APOBEC-3A (Homo sapiens, UniProt P31941). Put plainly: Dose Response confirmation of small molecule APOBEC3A DNA Deaminase Inhibitors via a fluorescence-based single-stranded DNA deaminase assay. [Related pubchem assays (depositor defined):AID493011, AID493024]. In kind it is functional.
DNA dC->dU-editing enzyme APOBEC-3A, sequence (P31941 whole entry): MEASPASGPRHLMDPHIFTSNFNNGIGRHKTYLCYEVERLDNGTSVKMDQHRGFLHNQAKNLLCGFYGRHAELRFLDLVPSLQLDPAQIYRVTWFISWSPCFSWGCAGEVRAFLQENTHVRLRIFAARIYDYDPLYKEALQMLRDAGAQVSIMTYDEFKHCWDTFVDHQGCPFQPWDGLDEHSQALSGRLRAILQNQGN
Assay [3] addresses T1, Tyrosine-protein phosphatase non-receptor type 7 (Homo sapiens, UniProt P35236).
T1 sequence (P35236 whole entry): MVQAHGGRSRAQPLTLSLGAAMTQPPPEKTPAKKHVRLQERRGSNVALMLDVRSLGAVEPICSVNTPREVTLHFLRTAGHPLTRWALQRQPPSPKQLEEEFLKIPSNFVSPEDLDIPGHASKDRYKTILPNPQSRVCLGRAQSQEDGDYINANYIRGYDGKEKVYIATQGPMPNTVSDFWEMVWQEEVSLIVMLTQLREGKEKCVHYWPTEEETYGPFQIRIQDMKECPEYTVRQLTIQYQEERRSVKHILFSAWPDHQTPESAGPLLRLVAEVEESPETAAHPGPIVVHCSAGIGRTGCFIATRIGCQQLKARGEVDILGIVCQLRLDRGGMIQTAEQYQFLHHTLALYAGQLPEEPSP
Put plainly: redox-dependent HePTP inhibition, mechanism study, biochemical, fluorescence (AID 2068). In kind it is functional.

Assay [4] addresses T2, Alkaline phosphatase, tissue-nonspecific isozyme (Homo sapiens, UniProt P05186).
T2 sequence (P05186 whole entry): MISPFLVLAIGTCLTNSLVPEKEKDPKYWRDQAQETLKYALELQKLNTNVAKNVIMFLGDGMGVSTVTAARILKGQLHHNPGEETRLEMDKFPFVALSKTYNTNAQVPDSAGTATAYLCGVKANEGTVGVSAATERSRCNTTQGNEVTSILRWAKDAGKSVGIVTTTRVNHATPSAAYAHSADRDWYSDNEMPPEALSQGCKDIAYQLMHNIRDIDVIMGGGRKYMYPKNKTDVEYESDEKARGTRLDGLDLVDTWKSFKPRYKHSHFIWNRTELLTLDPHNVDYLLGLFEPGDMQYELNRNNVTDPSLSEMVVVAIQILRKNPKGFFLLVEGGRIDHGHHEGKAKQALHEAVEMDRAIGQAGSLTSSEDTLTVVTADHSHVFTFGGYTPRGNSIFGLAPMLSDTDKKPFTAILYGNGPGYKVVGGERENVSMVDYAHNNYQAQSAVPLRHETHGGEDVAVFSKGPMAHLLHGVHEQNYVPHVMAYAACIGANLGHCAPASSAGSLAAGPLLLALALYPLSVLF
The assay is described as follows: TNAP enzyme inhibition by screening hits, dose response, selectivity assay for mouse IAP inhibitor project, biochemical, human TNAP, uHTS hits (AID 488906). In kind it is functional.

For assay [5], the target named is Intestinal-type alkaline phosphatase (Homo sapiens, UniProt P09923). Put plainly: activation of human intestinal alkaline phosphatase – biochemical, dose response (AID 488873). In kind it is functional.
Intestinal-type alkaline phosphatase (Homo sapiens, UniProt P09923), sequence (P09923 whole entry): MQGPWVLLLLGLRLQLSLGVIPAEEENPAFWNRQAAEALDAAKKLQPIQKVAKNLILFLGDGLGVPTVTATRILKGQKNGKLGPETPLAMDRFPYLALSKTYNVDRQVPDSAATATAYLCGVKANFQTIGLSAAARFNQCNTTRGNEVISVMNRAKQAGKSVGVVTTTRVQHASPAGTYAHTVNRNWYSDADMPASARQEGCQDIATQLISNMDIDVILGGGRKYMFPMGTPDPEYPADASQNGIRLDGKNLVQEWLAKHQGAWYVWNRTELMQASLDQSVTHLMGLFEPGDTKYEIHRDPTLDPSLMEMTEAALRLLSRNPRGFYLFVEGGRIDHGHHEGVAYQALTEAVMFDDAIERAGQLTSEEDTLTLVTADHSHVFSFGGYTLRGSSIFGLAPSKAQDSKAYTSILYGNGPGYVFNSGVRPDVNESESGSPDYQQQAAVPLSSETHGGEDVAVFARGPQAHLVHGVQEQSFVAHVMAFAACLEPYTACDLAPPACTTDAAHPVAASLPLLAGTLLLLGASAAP
The target of assay [6] is T3, Rac GTPase-activating protein 1 (Homo sapiens, UniProt Q9H0H5).
T3 sequence (Q9H0H5 whole entry): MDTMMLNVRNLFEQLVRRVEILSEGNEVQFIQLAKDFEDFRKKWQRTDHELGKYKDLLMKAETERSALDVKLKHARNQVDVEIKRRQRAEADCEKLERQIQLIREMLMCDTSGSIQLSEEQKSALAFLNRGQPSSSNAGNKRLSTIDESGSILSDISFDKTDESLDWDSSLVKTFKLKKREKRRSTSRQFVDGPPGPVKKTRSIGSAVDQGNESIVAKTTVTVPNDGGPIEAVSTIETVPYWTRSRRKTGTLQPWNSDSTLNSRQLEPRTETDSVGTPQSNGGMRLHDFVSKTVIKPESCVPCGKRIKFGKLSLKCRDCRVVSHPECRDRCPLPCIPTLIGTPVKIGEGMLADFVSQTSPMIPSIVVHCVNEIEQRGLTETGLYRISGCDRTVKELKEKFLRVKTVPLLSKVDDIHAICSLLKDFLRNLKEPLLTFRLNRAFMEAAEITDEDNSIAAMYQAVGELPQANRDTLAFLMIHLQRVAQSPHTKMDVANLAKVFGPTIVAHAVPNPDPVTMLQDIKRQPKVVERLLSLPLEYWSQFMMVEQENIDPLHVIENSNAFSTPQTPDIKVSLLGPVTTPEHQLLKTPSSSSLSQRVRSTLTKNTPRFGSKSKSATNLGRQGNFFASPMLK
Put plainly: MgcRacGAP GTPase-activating activity inhibitors, confirmation, biochemical, ADP Hunter fluorescence, primary and confirmatory (AID 624330). The assay is classed as functional.

Another assay has as its target T4, Aspartyl aminopeptidase (Plasmodium falciparum 3D7, UniProt Q8I2J3).
T4 sequence (Q8I2J3 whole entry): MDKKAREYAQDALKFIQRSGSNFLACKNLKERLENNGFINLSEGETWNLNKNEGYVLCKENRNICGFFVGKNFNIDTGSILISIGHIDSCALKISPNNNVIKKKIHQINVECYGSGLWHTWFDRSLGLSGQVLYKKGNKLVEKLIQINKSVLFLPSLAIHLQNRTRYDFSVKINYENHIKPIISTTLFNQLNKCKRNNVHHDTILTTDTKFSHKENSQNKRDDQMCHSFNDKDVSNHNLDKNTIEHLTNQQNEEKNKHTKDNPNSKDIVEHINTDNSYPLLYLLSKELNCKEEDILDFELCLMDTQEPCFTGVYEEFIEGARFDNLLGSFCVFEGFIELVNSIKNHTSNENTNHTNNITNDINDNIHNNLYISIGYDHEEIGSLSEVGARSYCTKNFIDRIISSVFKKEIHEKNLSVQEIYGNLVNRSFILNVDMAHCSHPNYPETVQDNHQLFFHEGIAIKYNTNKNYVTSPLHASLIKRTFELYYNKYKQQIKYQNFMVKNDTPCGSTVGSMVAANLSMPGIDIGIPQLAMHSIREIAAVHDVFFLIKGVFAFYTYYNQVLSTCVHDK

For the next assay, the target named is Procathepsin L (Homo sapiens, UniProt P07711).
Procathepsin L, sequence (P07711 whole entry): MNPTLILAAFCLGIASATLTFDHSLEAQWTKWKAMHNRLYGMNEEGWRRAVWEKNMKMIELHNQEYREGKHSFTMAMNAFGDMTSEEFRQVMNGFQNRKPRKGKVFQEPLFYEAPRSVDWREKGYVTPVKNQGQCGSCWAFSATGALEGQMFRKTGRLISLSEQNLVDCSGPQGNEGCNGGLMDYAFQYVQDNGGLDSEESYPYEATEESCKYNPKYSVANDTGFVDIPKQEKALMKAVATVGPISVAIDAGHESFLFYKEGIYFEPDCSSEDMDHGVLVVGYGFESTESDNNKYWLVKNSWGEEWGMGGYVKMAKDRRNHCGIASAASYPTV
In assay [7] the target is Intestinal-type alkaline phosphatase (Mus musculus, UniProt P24822). The assay is described as follows: PubChem AID 488785. In kind it is functional.
Intestinal-type alkaline phosphatase (Mus musculus, UniProt P24822), sequence (P24822 whole entry): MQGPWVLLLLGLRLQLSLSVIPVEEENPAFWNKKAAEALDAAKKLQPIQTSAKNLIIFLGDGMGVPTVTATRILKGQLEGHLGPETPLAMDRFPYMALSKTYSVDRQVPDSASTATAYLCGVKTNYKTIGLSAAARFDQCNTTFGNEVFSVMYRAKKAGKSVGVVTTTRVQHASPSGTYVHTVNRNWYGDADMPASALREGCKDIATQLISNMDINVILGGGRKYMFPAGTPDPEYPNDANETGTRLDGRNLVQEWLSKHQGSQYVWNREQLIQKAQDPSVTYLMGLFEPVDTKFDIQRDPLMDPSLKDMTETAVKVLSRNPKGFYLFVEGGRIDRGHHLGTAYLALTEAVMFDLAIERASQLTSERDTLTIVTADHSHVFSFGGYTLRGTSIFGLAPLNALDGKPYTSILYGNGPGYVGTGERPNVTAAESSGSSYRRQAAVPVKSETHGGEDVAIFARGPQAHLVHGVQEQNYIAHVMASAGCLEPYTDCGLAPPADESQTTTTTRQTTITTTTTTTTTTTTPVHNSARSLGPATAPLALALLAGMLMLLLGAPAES
Assay [8] addresses T5, Replicative DNA helicase DnaB (Mycobacterium tuberculosis, UniProt P9WMR3).
T5 sequence (P9WMR3 whole entry): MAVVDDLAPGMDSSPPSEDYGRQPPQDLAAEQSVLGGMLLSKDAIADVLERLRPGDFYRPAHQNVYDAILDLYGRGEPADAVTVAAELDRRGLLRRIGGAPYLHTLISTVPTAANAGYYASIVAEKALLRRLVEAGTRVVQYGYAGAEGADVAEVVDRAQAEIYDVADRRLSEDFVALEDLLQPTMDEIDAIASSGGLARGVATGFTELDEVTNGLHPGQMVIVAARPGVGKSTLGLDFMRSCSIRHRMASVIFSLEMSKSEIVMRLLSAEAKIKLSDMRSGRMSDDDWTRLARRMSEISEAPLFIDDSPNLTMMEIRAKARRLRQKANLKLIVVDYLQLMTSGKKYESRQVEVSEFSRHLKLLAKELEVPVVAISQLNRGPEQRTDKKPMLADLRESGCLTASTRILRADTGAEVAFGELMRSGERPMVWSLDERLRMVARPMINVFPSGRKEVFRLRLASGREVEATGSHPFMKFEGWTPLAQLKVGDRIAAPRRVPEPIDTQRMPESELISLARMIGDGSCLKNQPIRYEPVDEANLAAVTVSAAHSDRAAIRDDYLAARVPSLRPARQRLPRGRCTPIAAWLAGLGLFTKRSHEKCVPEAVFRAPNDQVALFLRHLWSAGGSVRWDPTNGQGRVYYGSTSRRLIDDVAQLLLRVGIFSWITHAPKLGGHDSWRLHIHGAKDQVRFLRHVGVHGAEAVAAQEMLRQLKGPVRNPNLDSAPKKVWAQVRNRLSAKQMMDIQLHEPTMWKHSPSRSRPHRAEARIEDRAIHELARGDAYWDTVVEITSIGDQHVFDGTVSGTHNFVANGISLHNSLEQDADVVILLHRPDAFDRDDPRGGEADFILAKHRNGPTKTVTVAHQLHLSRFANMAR
Put plainly: DnaB intein splicing inhibitors, dose response, biochemical, cell-free fluorescence (AID 449749). In kind it is functional.

The next assay concerns the target T6, Protein RecA (Mycobacterium tuberculosis, UniProt P9WHJ3).
T6 sequence (P9WHJ3 whole entry): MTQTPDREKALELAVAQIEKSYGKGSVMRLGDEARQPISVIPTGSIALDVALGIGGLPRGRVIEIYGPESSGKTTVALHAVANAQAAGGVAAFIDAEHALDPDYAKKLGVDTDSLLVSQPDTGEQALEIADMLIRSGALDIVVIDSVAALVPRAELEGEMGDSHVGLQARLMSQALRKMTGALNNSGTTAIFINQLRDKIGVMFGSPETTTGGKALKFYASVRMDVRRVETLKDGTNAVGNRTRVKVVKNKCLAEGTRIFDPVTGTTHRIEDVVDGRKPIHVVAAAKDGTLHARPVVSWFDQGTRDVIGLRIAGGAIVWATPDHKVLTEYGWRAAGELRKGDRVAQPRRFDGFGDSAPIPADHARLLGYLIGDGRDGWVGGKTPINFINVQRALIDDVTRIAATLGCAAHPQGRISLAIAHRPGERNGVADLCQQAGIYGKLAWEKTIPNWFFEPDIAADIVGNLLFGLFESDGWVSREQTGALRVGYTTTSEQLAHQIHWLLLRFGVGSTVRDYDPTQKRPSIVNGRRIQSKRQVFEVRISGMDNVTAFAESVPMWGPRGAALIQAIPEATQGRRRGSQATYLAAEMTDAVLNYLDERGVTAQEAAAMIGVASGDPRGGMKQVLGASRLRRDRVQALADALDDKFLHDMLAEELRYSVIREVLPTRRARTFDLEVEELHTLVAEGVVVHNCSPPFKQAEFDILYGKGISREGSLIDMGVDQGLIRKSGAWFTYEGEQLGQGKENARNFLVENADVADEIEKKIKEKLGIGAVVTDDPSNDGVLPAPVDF
Put plainly: Fluorescence Cell-Free Homogeneous Dose Retest to Identify Inhibitors of RecA-Intein Splicing Activity. [Related pubchem assays (depositor defined):AID2097, AID2223, AID489010, AID492950]. In kind it is functional.

DNA dC->dU-editing enzyme APOBEC-3G, sequence (Q9HC16 whole entry): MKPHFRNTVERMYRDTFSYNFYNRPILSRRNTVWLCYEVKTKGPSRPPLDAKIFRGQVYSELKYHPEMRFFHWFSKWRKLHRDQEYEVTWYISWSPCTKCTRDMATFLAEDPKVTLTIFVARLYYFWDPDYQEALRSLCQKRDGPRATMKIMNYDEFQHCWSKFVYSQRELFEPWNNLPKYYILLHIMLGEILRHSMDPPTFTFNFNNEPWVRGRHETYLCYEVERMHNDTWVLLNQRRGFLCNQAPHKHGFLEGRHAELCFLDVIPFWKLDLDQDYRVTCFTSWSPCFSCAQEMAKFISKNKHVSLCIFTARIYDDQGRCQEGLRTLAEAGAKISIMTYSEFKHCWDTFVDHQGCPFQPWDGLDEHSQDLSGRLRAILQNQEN

As usually defined, the IC50 is the point on the concentration scale where inhibition reaches its midpoint. As to `CCC(CO)(C(=O)OC1C[N+]2(C)CCC1CC2)c1ccccc1` (stereo not drawn), the IC50 in [1] is 2.09 µM (active); in assay [2], 2.25 µM (active).
The like results for `CCn1c(C)[n+](CC)c2cc(S(=O)(=O)NC)ccc21` were, in that order, 17.5 µM (active) and 6.81 µM (active).
`O=C(NCc1ccc2c(c1)OCO2)Nc1ccc2nc(-c3ccco3)c(-c3ccco3)nc2c1`: the IC50 in assay [3] was 2.15 µM (active).
As usually defined, the EC50 is the concentration giving half of the maximal effect. What is called AC50 is the concentration at which the activity in the assay is half-maximal. Turning to `Oc1cc(O)c2c(c1)O[C@H](c1ccc(O)c(O)c1)[C@H](O)C2` [(-)-EPICATECHIN], the IC50 in assay [4] was 0.407 µM (active); in assay [6] it was 206 µM (active); on Aspartyl aminopeptidase, 1.38 µM (active); on Procathepsin L, > 59.6 µM (not active); in [7] it was 1.36 µM (active). In addition, the EC50 in [5] was > 100 µM (inactive); on Protein RecA it was > 380 µM (inconclusive). Moreover, the AC50 in assay [8] is > 380 µM (inactive).

For the origin of these results see ChEMBL document CHEMBL1201862, “PubChem BioAssay data set” (2004).
